Assay results: US20010049369A1, “Brimonidine compositions and methods for retinal degeneration” (priority 2000, published 2001)
Where two headings read alike, the source gives them in different places.

Tests used:
cAMP = details: retina (Osborne 1991); cited from earlier work
[1] = topically applied, glaucomatous patients (Lachkar 1998; Carlsson 1999); cited from earlier work
photoreceptors = details: albino rats, cited from earlier work; for protection of photoreceptors from light damage: systemic administration (Wen et al., 1996)
[2] = system: mitogen-activated protein kinase (MAPK); details: systemically administered (Peng et al., 1998); cited from earlier work
ischemic retinal injury = details: cited from earlier work
[3] = rabbit, cited from earlier work
[4] = topical administration to the eye, animals and clinical trials; cited from earlier work
retinal ganglion cells = details: rat, intraperitoneal administration (Yoles et al 1999); cited from earlier work
[5] = system: Müller cells of RPE-free eye rudiments; details: for upregulation of GFAP induced by RPE removal: brimonidine added to culture media; for glutamine synthetase (GS) immunoreactivity: brimonidine-treated RPE-free eye rudiments
Procedure: (§1) The following studies were performed on Xenopus embryos. Briefly, eye rudiments were removed from stage 33/34 Xenopus embryos. The RPE was peeled from the outer retinal surface and eyes were cultured for 3 days in Niu-Twitty (NT) medium. The same experiment was performed in NT medium containing 0.001% brimonidine. Control conditions included eye rudiments cultured with the RPE and eyes allowed to mature in vivo to an equivalent developmental stage. Retinal morphology was assessed, carefully evaluating PRs and MCs.
(§2) The culture preparation used in these studies has been previously described (Hollyfield, 1974; Lolley, 1977; Stiemke, 1994; Stiemke, 1995; and Jablonski, 1999). The handling of animals was in accordance with the Declaration of Helsinki and The Guiding Principles in the Care and Use of Animals (DHEW Publication, NIH 80-23). Human chorionic gonadotropin (Sigma Chemical Co., St. Louis, Mo.) was to induce adult Xenopus laevis to breed. The external staging system of Nieuwkoop and Faber was used to determine retinal maturity (Nieuwkoop, 1956). Embryos and isolated eyes were maintained under cyclic lighting conditions (12 hour light: 12 hour dark) in all experiments, rudimentary eyes were removed from embryos at state 33/34, just as photoreceptor outer segments are beginning to form (Stiemke, 1994). Eyes were maintained in vitro for three days at 23° C. in Niu-Twitty medium (Jacobson, 1967) after which they were fixed for subsequent analyses.
When appropriate, the overlying RPE was gently peeled away from the neuroepithelium using finely polished forceps, leaving the underlying retina exposed to the culture medium. Eye rudiments without a closely adherent RPE were cultured in Niu-Twitty media alone, Niu-Twitty containing 0.001% brimonidine. Eyes allowed to mature in vitro in the presence of an adherent RPE in Niu-Twitty medium alone were used as controls.
Any eye with an uneven surface or which had many loose cells associated with it was discarded.

[6] = expected, topical administration, to be verified
Excerpt: The intraocular concentration is likely to be inversely proportional to the surface area available for absorption. […] Once verified, the dosage of brimonidine in eyedrops will be adjusted accordingly (10:1 dilution, i.e. 0.02%) to mimic more closely the intraocular concentrations that would be reached during human application.
The intraocular concentration is likely to be inversely proportional to the surface area available for absorption. […] Once verified, the dosage of brimonidine in the eyedrops would be adjusted accordingly (predicted to be a 10:1 dilution, i.e., 0.02%) to mimic more closely the intraocular concentrations that would be reached during human application.

[7] = primate, 2% solution of brimonidine tartrate, twice daily; cited from earlier work
opsin = details: 0.0001% brimonidine in culture media
Procedure: as §1
as §2, with “Eyes were maintained in vitro for three days at 23° C. in Niu-Twitty medium (Jacobson, 1967) after which they were fixed for subsequent analyses.” left out

[8] = system: retinal degeneration (RP); details: patients with RP, 15,000 I.U. daily (Berson 1993); cited from earlier work

Brc1c(NC2=NCCN2)ccc2nccnc12 [UK 14304]
cAMP levels following stimulation with forskolin and VIP (cAMP): reduce cAMP levels

brimonidine tartrate
blood flow in ophthalmic, central retinal, nasal and temporal ciliary arteries [1]: did not affect the blood flow

Clc1cccc(Cl)c1N=C1NCCN1 [clonidine]
cAMP levels following stimulation with forskolin and VIP (cAMP): reduce cAMP levels
protection of photoreceptors from light damage (photoreceptors): protect the photoreceptors of albino rats from light damage
MAPK phosphorylation in Müller cells [2]: activate selectively and specifically

COC(=O)[C@@H]1[C@H]2C[C@H]3c4[nH]c5ccccc5c4CCN3C[C@@H]2CC[C@@H]1O [yohimbine]
effect of pretreatment on the protective effect of xylazine and clonidine (photoreceptors; pretreatment with the antagonist (Wen et al., 1996)): prevented the protective effect

Cc1cccc(C)c1N=C1NCCCS1 [xylazine]
protection of photoreceptors from light damage (photoreceptors): protect the photoreceptors of albino rats from light damage
MAPK phosphorylation in Müller cells [2]: activate selectively and specifically

Brc1c(NC2=NCCN2)ccc2nccnc12 [brimonidine, 5-bromo-6-(2-imidazolidinylideneamino)-quinoxaline]
ERG b-wave truncation due to ischemia (ischemic retinal injury; retinal ischemia): partially prevent this b-wave truncation
ischemic retinal injury (ischemic retinal injury; topically applied 1 hour before injury (Wheeler et al. 1999)): effective in decreasing ischemic retinal injury
intravitreal concentration reached via topical administration ([3]; 2% solution of brimonidine tartrate, twice daily): 450 nM
concentration reaching the fellow eye via the systemic circulation ([3]; topical administration to the other eye): < 15 nM
intraocular pressure (IOP) [4]: decrease in intraocular pressure
loss of retinal ganglion cells induced by the crush (retinal ganglion cells): effective in decreasing loss of retinal ganglion cells
n-cadherin immunolocalization patterns ([5]; 0.0001% brimonidine, RPE removed, data not shown): preserved
upregulation of GFAP induced by RPE removal ([5]; RPE removed): virtually abolished
upregulation of GFAP induced by RPE removal ([5]; RPE removed, listed as Brimonidine): prevented the upregulation of GFAP expression
glutamine synthetase (GS) immunoreactivity [5]: well preserved
glutamine synthetase (GS) immunoreactivity ([5]; listed as Brimonidine): allows Müller cells to express glutamine synthetase in the absence of the RPE
intraocular concentration in mouse eye relative to primate eye [6]: approximately 10 times
intravitreal concentration reached via topical administration [7]: 100 nM
amount of opsin/eye compared to RPE-free eyes cultured without brimonidine (opsin): marked increase

CCCCCCCCCCCCCCCC(=O)OC/C=C(C)/C=C/C=C(C)/C=C/C1=C(C)CCCC1(C)C [vitamin A palmitate]
progression of retinal degeneration [8]: slowed, but did not prevent, the progression of retinal degeneration
